# Source: patent publication US20260184715A1, “NOVEL PYRROLO[1,2-d][1,2,4] TRIAZINONE DERIVATIVES AS NEGATIVE ALLOSTERIC MODULATORS OF MGLU7 RECEPTORS” (Neurosterix Pharma Sarl., priority 2022, published 2026)
# Molecular target: T1, human metabotropic glutamate 7 receptor (hmGlu7) (Homo sapiens, UniProt Q14831)
# T1 construct: expressed in transfected cells
# Assay: mGlu7 assay on HEK-expressing human mGlu7: fluorescent cell based-Ca2+ mobilization assay (FLIPR), inhibition of EC80 L-AP4 response
# Settings: HEK-293 cells expressing hmGlu7, EC80 L-AP4; mean of at least three independent experiments in duplicate; read-out: Ca^2+ Flux (mean IC50)
# Description: mGlu7 Assay on HEK-Expressing Human mGLU7
# The cDNA encoding the human metabotropic glutamate 7 receptor (hmGlu7), (accession number NM_181874.2, NCBI Nucleotide database browser), was subcloned into an expression vector containing also the hygromycin resistance gene. In parallel, the cDNA encoding a G protein allowing redirection of the activation signal to intracellular calcium flux was subcloned into a different expression vector containing also the Puromycin resistance gene. Transfection of both these vectors into HEK293 cells with PolyFect reagent (Qiagen) according to supplier's protocol, and hygromycin and puromycin treatment allowed selection of antibiotic resistant cells which had integrated stably one or more copies of the plasmids. Positive cellular clones expressing hmGlu7 were identified in a functional assay measuring changes in calcium fluxes in response to glutamate and L-AP4 or known mGlu7 orthosteric antagonists.
# HEK-293 cells expressing hmGlu7 were maintained in media containing DMEM, Fetal Bovine Serum (10%), GlutaMAX™ (2 mM), penicillin (100 units/mL), streptomycin (100 μg/mL), geneticin (100 μg/mL) and hygromycin-B (40 μg/mL) and puromycin (1 μg/mL) at 37° C. with 5% CO2 in a humidified atmosphere.
# Human mGlu7 HEK-293 cells were plated out 24 hours prior to a fluorescent cell-based calcium mobilization assay using FLIPR^384 assay (Molecular Device, Sunnyvale, CA, USA) in black-walled, clear-bottomed, poly-L-ornithine-coated 384-well plates at a density of 25,000 cells/well in a glutamine/glutamate free DMEM medium containing fetal bovine serum (10%), penicillin (100 units/mL), streptomycin (100 μg/mL) and doxycyline (1 μg/ml) at 37° C. with 5% CO2 in a humidified atmosphere.
# On the day of the assay, the medium was aspirated and the cells were loaded with a 3 μM solution of Fluo4-AM (LuBioScience, Lucerne, Switzerland) in 0.03% pluronic acid. After 1 hour at 37° C./5% CO2, the non incorporated dye was removed by washing cell plate with the assay buffer. All assays were performed in a pH 7.4 buffered-Solution containing 20 mM HEPES, 143 mM NaCl, 6 mM KCl, 1 mM MgSO4, 1 mM CaCl2, 0.125 mM sulfinpyrazone and 0.1% glucose.
# After 10 s of basal fluorescence recording, various concentrations of the compounds of the invention were added to the cells. Changes in fluorescence levels were first monitored for 180 s in order to detect any agonist activity of the compounds. Then the cells were stimulated by an EC80 L-AP4 concentration for an additional 110 s in order to measure inhibiting activities of the compounds of the invention. EC80 L-AP4 concentration is the concentration giving 80% of the maximal glutamate response.
# The concentration-response curves of L-AP4 or representative compounds of the present invention were generated using the Prism GraphPad software (Graph Pad Inc, San Diego, USA). The curves were fitted to a four-parameter logistic equation:
# (Y=Bottom+(Top−Bottom)/(1+10^((Log IC50−X)*Hill Slope)
# allowing determination of IC50 values.
# The Table 3 below represents the mean IC50 obtained from at least three independent experiments of selected molecules performed in duplicate.
# T1 sequence (Q14831 35-922 isoform Q14831-2 limits assumed): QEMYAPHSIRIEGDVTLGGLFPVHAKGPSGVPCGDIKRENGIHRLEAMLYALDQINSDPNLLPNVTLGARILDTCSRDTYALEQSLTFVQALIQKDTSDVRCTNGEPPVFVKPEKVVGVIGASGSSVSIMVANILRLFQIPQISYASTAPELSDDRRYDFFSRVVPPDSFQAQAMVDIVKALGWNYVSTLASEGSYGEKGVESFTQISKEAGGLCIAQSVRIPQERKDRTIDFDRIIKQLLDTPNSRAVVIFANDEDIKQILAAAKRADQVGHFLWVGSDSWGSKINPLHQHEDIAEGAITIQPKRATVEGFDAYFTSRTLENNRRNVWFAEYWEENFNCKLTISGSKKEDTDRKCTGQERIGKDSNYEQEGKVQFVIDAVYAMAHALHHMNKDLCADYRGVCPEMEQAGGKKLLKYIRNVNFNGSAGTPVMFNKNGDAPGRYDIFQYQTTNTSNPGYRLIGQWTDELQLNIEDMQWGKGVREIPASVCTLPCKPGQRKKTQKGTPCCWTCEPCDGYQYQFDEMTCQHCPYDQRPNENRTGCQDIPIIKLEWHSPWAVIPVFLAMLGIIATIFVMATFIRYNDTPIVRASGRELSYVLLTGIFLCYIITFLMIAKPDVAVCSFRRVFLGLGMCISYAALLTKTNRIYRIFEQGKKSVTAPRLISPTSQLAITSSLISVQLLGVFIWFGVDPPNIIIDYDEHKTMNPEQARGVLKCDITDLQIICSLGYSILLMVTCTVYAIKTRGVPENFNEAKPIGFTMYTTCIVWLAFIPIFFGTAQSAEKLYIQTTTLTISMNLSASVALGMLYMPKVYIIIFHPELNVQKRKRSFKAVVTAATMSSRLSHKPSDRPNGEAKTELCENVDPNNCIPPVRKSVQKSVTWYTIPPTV
row,IC50,SMILES
1,100 to 1000 nM,COc1cccc(-c2c(C)c3cnn(-c4ncccn4)c(=O)n3c2C)c1C [1-95]
2,< 100 nM,COc1cccc(-c2cc3cnn(-c4ncccn4)c(=O)n3c2C)c1C [1-76]
3,< 100 nM,Cc1c(-c2ccnc(OC(F)F)c2)cc2cnn(-c3ncccn3)c(=O)n12 [1-147]
4,< 100 nM,Cc1ccc(OC2CC2)cc1-c1c(C)c2cnn(-c3ncccn3)c(=O)n2c1C [1-93]
5,100 to 1000 nM,COc1cc(-c2c(C)c3cnn(-c4ncccn4)c(=O)n3c2C)ccn1 [1-139]
6,< 100 nM,Cc1c(-c2cccc(OC(F)F)c2)cc2cnn(-c3ncccn3)c(=O)n12 [1-74]
7,< 100 nM,Cc1c(OC(F)F)cccc1-c1cc2cnn(-c3ncccn3)c(=O)n2c1C [1-75]
8,< 100 nM,Cc1c(-c2cccc3c2ccn3C2CC2)c(C)n2c(=O)n(-c3ncccn3)ncc12 [1-96]
9,< 100 nM,COc1ccc(F)c(-c2cc3cnn(-c4ccccn4)c(=O)n3c2C)c1 [1-102]
10,100 to 1000 nM,Cc1c(-c2cccc3c2CCN3C)c(C)n2c(=O)n(-c3ncccn3)ncc12 [1-87]
11,< 100 nM,Cc1c(-c2cccc(OC3CC3)c2Cl)cc2cnn(-c3ccccn3)c(=O)n12 [1-104]
12,100 to 1000 nM,COc1cccc(-c2c(C)c3cnn(-c4ncccn4)c(=O)n3c2C)n1 [1-98]
13,100 to 1000 nM,COc1cccc(-c2c(C)c3cnn(-c4ncccn4)c(=O)n3c2C)c1F [1-133]
14,< 100 nM,Cc1c(-c2cccc3c2CCO3)cc2cnn(-c3ccccn3)c(=O)n12 [1-69]
15,< 100 nM,Cc1c(-c2cccc3c2CC(=O)N3C)cc2cnn(-c3ccccn3)c(=O)n12 [1-78]
16,100 to 1000 nM,COc1ccc(F)c(-c2cc3cnn(-c4ncccn4)c(=O)n3c2C)c1 [1-105]
17,< 100 nM,Cc1c(-c2cccc3c2CCN3C2CC2)cc2cnn(-c3ccccn3)c(=O)n12 [1-65]
18,100 to 1000 nM,COc1cc(F)cc(-c2cc3cnn(-c4ccccn4)c(=O)n3c2C)c1 [1-101]
19,100 to 1000 nM,Cc1c(OC2CC2)cccc1-c1cc2cnn(-c3ncccn3)c(=O)n2c1C [1-85]
20,100 to 1000 nM,COc1ccc(-c2cc3cnn(-c4ncccn4)c(=O)n3c2C)cn1 [1-144]
21,100 to 1000 nM,Cc1c(-c2cccc3c2CCN3C2CC2)c(C)n2c(=O)n(-c3ncccn3)ncc12 [1-99]
22,< 100 nM,Cc1c(-c2cccc(OC3CC3)c2)cc2cnn(-c3ncccn3)c(=O)n12 [1-88]
23,< 100 nM,COc1cc(-c2cc3cnn(-c4ncccn4)c(=O)n3c2C)ccc1F [1-111]
24,< 100 nM,COc1cc(-c2cc3cnn(-c4ncccn4)c(=O)n3c2C)ccn1 [1-114]
25,100 to 1000 nM,Cc1c(-c2cccc3c2CCN3C(C)C)cc2cnn(-c3ccccn3)c(=O)n12 [1-66]
26,100 to 1000 nM,Cc1c(-c2cccc3c2CCCN3C2CC2)c(C)n2c(=O)n(-c3ncccn3)ncc12 [1-121]
27,100 to 1000 nM,Cc1c(-c2ccnc(OC(F)F)c2)c(C)n2c(=O)n(-c3ccccn3)ncc12 [1-140]
28,< 100 nM,Cc1c(OC(F)F)cccc1-c1cc2cnn(-c3ccccn3)c(=O)n2c1C [1-71]

# The remaining lines, values behind:
row,SMILES,IC50
1,Cc1c(-c2cccc(OC3CC3)c2)c(C)n2c(=O)n(-c3ncccc3F)ncc12 [1-51],100 to 1000 nM
2,Cc1c(-c2cccc(OC(F)F)c2)c(C)n2c(=O)n(-c3ncccn3)ncc12 [1-58],< 100 nM
3,"Cc1c(-c2cccc(OC(F)(F)F)c2)c(C)n2c(=O)n(-c3ncccn3)ncc12 [1-53, 6,8-dimethyl-3-pyrimidin-2-yl-7-[3-(trifluoromethoxy)phenyl]pyrrolo[1,2-d][1,2,4]triazin-4-one]",100 to 1000 nM
4,"Cc1c(-c2cccc(OC3CC3)c2)c(C)n2c(=O)n(-c3ncc(N4CCOCC4)cn3)ncc12 [1-47, 7-[3-(cyclopropoxy)phenyl]-6,8-dimethyl-3-(5-morpholinopyrimidin-2-yl)pyrrolo[1,2-d][1,2,4]triazin-4-one]",100 to 1000 nM
5,Cc1c(-c2cccc(N3CCC3)c2)c(C)n2c(=O)n(Cc3ccccn3)ncc12 [1-9],100 to 1000 nM
6,Cc1c(-c2cccc(OC3CC3)c2)c(C)n2c(=O)n(-c3ncccn3)ncc12 [1-29],< 100 nM
7,Cc1c(-c2cccc(N3CCC3)c2)c(C)n2c(=O)n(-c3ccc(CCO)cn3)ncc12 [1-11],1000 to 10000 nM
8,COc1cnc(-n2ncc3c(C)c(-c4cccc(OC(F)(F)F)c4)c(C)n3c2=O)nc1 [1-56],100 to 1000 nM
9,Cc1ccc(N2CCC2)cc1-c1c(C)c2cnn(-c3ccccn3)c(=O)n2c1C [1-16],100 to 1000 nM
10,Cc1c(-c2cccc(N3CCC3)c2)c(C)n2c(=O)n(-c3ccc(N(C(=O)OC(C)(C)C)C(=O)OC(C)(C)C)cn3)ncc12 [1-28],1000 to 10000 nM
11,COc1cnc(-n2ncc3c(C)c(-c4ccc(C)cc4C)c(C)n3c2=O)nc1 [1-46],100 to 1000 nM
12,COc1cnc(-n2ncc3c(C)c(-c4cccc(N5CCC5)c4)c(C)n3c2=O)nc1 [1-25],< 100 nM
13,Cc1c(C2=CCCCC2)c(C)n2c(=O)n(-c3ccccn3)ncc12 [1-14],1000 to 10000 nM
14,Cc1c(-c2cccc(N3CCC3)c2)c(C)n2c(=O)n(-c3ccc(NCCN(C)C)cn3)ncc12 [1-36],100 to 1000 nM
15,Cc1c(-c2cccc(N3CCC3)c2)c(C)n2c(=O)n(C3CCOCC3)ncc12 [1-5],100 to 1000 nM
16,COc1cnc(-n2ncc3c(C)c(-c4cccc(OC(F)F)c4)c(C)n3c2=O)nc1 [1-57],100 to 1000 nM
17,Cc1c(OC2CC2)cccc1-c1c(C)c2cnn(-c3ncc(F)cn3)c(=O)n2c1C [1-49],100 to 1000 nM
18,COCCNc1ccc(-n2ncc3c(C)c(-c4cccc(N5CCC5)c4)c(C)n3c2=O)nc1 [1-35],100 to 1000 nM

row,SMILES,IC50
1,"Cc1c(OC2CC2)cccc1-c1cc2cnn(-c3ncccn3)c(=O)n2c1 [1-18, 7-[3-(cyclopropoxy)-2-methyl-phenyl]-3-pyrimidin-2-yl-pyrrolo[1,2-d][1,2,4]triazin-4-one]",100 to 1000 nM
2,Cc1c(-c2cccc(N3CCC3)c2)c(C)n2c(=O)n(-c3ccc(N4CCOCC4)nc3)ncc12 [1-32],100 to 1000 nM
3,"Cc1c(-c2cccc(N3CCC3)c2)c(C)n2c(=O)n(-c3ccc(C(C)(C)O)cn3)ncc12 [1-24, 7-[3-(azetidin-1-yl)phenyl]-3-[5-(1-hydroxy-1-methyl-ethyl)-2-pyridyl]-6,8-dimethyl-pyrrolo[1,2-d][1,2,4]triazin-4-one]",< 100 nM
4,"Cc1c(-c2cccc(N3CCC3)c2)c(C)n2c(=O)n(-c3ccccn3)ncc12 [1-3, 7-[3-(azetidin-1-yl)phenyl]-6,8-dimethyl-3-(2-pyridyl)pyrrolo[1,2-d][1,2,4]triazin-4-one]",< 100 nM
5,Cc1cnc(-n2ncc3c(C)c(-c4cccc(OC5CC5)c4C)c(C)n3c2=O)nc1 [1-52],100 to 1000 nM
6,"CCn1ncc2c(C)c(-c3cccc(N4CCC4)c3)c(C)n2c1=O [1-10, 7-[3-(azetidin-1-yl)phenyl]-3-ethyl-6,8-dimethyl-pyrrolo[1,2-d][1,2,4]triazin-4-one]",100 to 1000 nM
7,Cc1ccc(-c2c(C)c3cnn(-c4ccccn4)c(=O)n3c2C)c(C)c1 [1-1],< 100 nM
8,Cc1c(-c2cccc(OC(F)(F)F)c2)c(C)n2c(=O)n(-c3ccccn3)ncc12 [1-38],100 to 1000 nM
9,Cc1c(-c2cccc(N3CCC3)c2)c(C)n2c(=O)n(-c3ccc(F)cn3)ncc12 [1-22],< 100 nM
10,Cc1c(-c2cccc(OC(F)(F)F)c2)c(C)n2c(=O)n(-c3ncc(F)cn3)ncc12 [1-60],100 to 1000 nM
11,Cc1cnc(-n2ncc3c(C)c(-c4cccc(OC5CC5)c4)c(C)n3c2=O)nc1 [1-50],100 to 1000 nM
12,Cc1c(-c2cccc(N3CCC3)c2)c(C)n2c(=O)n(-c3ccncc3)ncc12 [1-6],100 to 1000 nM
13,Cc1c(OC2CC2)cccc1-c1c(C)c2cnn(-c3ccccn3)c(=O)n2c1C [1-8],100 to 1000 nM
14,Cc1c(-c2cccc(N3C4CCC3CC4)c2)c(C)n2c(=O)n(-c3ncccn3)ncc12 [1-131],100 to 1000 nM
15,Cc1c(-c2cccc(N3CCC3)c2)c(C)n2c(=O)n(-c3ncccn3)ncc12 [1-23],< 100 nM
16,Cc1c(-c2c(C)c3cnn(-c4ccccn4)c(=O)n3c2C)cccc1N1CCC1 [1-13],< 100 nM
17,Cc1c(-c2cccc3c2OCCN3C)cc2cnn(-c3ncccn3)c(=O)n12 [1-63],< 100 nM
18,Cc1c(-c2cc(F)cc(N3CCC3)c2)c(C)n2c(=O)n(-c3ccccn3)ncc12 [1-30],< 100 nM
